We go through 20 compounds from ChEMBL document CHEMBL1133080, “Substituted 5,7-diphenyl-pyrrolo[2,3d]pyrimidines: potent inhibitors of the tyrosine kinase c-Src” (Bioorg Med Chem Lett, 2000).

In test [1] the target is Cyclin-dependent kinase 1 (Homo sapiens, UniProt P06493). Description: Tested in vitro for inhibition of serine/threonine kinase Cdc2.
In test [2] the target is T1, Proto-oncogene tyrosine-protein kinase Src (Gallus gallus, UniProt P00523). Put plainly: Tested for inhibition of protein tyrosine kinase c-Src phosphorylation.
Test [3] concerns the target T2, Epidermal growth factor receptor (Homo sapiens, UniProt P00533). Put plainly: Tested in vitro for inhibition of EGF-receptor tyrosine kinase.
Test [4] concerns the target Tyrosine-protein kinase ABL (Homo sapiens, UniProt P00519+P42684). Put plainly: Tested in vitro for inhibition of non-receptor tyrosine kinase v-Abl. Type of test: protein assay.
For test [5], the target named is Vascular endothelial growth factor receptor 2 (Homo sapiens, UniProt P35968). Put plainly: Tested in vitro for inhibition of KDR-receptor tyrosine kinase.
In test [6] the target is T1, Proto-oncogene tyrosine-protein kinase Src. Description: Inhibition of protein tyrosine kinase c-Src.
In test [7] the target is Proto-oncogene tyrosine-protein kinase Src (Gallus gallus) (UniProt P00523). Description: Tested for inhibition of protein tyrosine kinase c-Src phosphorylation in intact cells.
The target in test [8] is Tyrosine-protein kinase CSK (Homo sapiens, UniProt P41240). Description: Tested for inhibition of protein tyrosine kinase Csk phosphorylation in intact cells. Type of test: cell-based.
For test [9], the target named is T2, Epidermal growth factor receptor. Description: Tested for inhibition of EGF-receptor tyrosine kinase in intact cells.
Test [10] has as its target Platelet-derived growth factor receptor (Mus musculus, UniProt P05622+P26618). Put plainly: Inhibition of PDGF-receptor kinase. Type of test: protein-complex assay.

Sequence of Vascular endothelial growth factor receptor 2 (P35968 whole entry): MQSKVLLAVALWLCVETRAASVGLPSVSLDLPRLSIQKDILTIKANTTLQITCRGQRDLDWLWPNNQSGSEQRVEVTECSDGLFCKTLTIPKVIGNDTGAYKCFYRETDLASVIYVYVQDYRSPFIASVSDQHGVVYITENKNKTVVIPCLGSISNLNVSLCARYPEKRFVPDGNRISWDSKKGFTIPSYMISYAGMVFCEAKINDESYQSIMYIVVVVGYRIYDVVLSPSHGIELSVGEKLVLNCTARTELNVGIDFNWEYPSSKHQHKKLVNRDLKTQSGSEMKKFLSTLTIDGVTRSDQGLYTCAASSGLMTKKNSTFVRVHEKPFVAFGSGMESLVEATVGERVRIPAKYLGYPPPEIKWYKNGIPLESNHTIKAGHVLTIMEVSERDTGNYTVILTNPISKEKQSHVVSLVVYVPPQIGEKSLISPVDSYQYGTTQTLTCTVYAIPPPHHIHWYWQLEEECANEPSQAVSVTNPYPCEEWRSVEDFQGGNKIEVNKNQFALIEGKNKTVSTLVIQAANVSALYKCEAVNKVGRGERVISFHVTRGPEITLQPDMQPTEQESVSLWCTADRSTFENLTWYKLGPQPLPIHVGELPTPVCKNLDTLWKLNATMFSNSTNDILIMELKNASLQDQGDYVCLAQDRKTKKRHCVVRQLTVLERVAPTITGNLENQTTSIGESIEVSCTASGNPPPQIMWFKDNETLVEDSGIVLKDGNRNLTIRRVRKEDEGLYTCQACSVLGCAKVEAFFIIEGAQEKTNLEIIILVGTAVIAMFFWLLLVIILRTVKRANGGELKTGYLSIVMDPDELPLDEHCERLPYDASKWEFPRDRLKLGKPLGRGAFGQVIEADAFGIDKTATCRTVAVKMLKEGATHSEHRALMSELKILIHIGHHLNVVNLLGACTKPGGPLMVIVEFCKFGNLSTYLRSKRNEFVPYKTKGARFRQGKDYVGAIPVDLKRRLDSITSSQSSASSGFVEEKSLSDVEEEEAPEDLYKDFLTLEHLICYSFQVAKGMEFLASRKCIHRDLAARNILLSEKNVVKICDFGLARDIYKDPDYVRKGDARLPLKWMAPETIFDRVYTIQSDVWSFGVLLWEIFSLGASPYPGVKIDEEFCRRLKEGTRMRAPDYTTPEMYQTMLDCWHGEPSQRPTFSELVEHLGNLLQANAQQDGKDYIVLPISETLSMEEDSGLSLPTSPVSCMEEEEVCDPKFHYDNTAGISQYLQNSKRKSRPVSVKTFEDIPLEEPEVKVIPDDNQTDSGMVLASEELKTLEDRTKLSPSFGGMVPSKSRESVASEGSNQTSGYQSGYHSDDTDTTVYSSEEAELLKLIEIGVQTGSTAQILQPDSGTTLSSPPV
Sequence of Tyrosine-protein kinase CSK (P41240 whole entry): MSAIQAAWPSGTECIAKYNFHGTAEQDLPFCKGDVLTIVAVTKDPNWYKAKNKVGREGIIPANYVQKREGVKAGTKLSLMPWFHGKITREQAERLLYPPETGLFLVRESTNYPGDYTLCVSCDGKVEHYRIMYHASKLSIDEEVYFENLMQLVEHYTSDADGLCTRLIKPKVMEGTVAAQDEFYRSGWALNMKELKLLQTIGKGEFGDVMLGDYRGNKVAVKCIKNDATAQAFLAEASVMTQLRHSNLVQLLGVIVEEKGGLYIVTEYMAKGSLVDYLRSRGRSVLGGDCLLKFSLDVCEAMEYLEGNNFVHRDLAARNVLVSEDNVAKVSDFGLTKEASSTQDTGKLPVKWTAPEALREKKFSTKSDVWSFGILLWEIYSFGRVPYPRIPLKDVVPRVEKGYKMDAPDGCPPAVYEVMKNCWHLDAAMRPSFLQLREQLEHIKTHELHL
Sequence of Cyclin-dependent kinase 1 (P06493 whole entry): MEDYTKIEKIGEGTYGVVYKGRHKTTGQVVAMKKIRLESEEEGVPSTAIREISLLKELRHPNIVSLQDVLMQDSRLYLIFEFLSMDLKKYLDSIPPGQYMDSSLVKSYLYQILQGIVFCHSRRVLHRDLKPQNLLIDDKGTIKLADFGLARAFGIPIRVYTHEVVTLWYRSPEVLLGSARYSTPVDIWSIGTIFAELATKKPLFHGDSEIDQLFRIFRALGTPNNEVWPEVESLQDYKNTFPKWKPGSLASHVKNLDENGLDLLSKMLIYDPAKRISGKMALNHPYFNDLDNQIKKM
T2 sequence (P00533 whole entry): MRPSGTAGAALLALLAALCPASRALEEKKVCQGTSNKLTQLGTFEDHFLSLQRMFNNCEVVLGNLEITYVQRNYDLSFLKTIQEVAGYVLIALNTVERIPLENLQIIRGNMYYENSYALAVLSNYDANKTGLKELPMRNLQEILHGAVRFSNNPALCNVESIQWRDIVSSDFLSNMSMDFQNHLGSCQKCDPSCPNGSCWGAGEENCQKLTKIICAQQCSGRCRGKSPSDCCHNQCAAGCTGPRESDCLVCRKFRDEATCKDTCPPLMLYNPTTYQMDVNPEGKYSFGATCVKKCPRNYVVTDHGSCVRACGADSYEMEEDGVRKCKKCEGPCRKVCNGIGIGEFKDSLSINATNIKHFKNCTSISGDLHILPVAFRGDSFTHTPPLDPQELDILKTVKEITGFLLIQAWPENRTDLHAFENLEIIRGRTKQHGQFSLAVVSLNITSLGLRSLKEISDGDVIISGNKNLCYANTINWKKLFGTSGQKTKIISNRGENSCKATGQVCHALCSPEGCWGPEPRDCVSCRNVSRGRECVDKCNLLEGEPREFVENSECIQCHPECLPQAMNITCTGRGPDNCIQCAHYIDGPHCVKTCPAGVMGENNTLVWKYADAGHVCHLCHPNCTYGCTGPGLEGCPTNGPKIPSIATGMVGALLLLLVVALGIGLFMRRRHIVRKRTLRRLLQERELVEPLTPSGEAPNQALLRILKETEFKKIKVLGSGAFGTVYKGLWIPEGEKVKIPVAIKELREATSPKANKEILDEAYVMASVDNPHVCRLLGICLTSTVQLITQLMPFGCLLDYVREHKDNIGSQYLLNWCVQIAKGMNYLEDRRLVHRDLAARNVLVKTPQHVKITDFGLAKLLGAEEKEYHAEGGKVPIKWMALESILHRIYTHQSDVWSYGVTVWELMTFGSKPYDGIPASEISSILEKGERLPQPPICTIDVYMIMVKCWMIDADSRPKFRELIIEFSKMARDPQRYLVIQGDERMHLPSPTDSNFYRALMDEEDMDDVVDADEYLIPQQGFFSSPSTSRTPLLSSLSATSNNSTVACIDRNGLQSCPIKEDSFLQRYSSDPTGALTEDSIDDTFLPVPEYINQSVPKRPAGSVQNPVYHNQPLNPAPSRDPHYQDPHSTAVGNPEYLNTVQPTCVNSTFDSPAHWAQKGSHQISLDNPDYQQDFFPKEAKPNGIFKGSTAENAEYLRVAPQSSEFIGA

Turning to `Nc1ncnc2c1c(-c1ccccc1)cn2-c1ccccc1CNCCO`, the IC50 in [1] is more than 10000 nM; in test [2] it was 5000 nM; in test [3] it was 6400 nM.

For `CNc1ncnc2c1c(-c1ccccc1)cn2-c1ccccc1`, the IC50 in [1] is more than 10000 nM; in test [2] it was more than 10000 nM; in test [3] it was 31000 nM; in test [4], more than 10000 nM.

In the case of `CCOC(=O)c1ccc(-c2cn(-c3ccccc3)c3ncnc(N)c23)cc1`, the IC50 in test [1] is more than 10000 nM; in test [2], 10000 nM; in [3], 1300 nM; in [4], more than 10000 nM; in [5] it was 1100 nM.

With `Nc1ncnc2c1c(-c1ccccc1)cn2-c1ccccc1CO`, the half-maximal inhibitory concentration (IC50) in [1] is more than 10000 nM; in test [2] it was 300 nM; in [3] it was 1100 nM; in test [4] it was 3400 nM.

Turning to `COc1cccc(-c2cn(-c3cccc(CO)c3)c3ncnc(N)c23)c1`, the concentration for half-maximal inhibition (IC50) in test [1] was 33000 nM; in test [2] it was 60 nM; in test [3], 800 nM; in test [4], 50 nM; in [5], more than 1000 nM.

In [6], `Nc1ncnc2c1c(-c1ccccc1)nn2-c1ccccc1` registered an IC50 of 500 nM.

With `Nc1ncnc2c1c(-c1ccccc1)cn2-c1ccc(CO)cc1`, the IC50 in test [1] came out at 30000 nM; in [2], 20 nM; in test [3], 700 nM; in test [4] it was 70 nM; in test [5] it was 600 nM.

For `Nc1ncnc2c1c(-c1ccccc1)cn2-c1ccccc1`, the IC50 in [1] was 54000 nM; in test [2] it was 100 nM; in test [7], 3500 nM; in [4], 20 nM; in test [8] it was more than 5000 nM.

As to `Nc1ncnc2c1c(-c1cccc(Cl)c1)cn2-c1ccccc1`, the IC50 in test [1] was more than 100000 nM; in test [2] it was 200 nM; in test [3], 700 nM; in test [4], 600 nM; in [5], 1000 nM.

On to `Nc1ncnc2c1c(-c1ccccc1)cn2-c1ccc(CNCCO)cc1`, for which the IC50 in test [1] came out at 82500 nM; in test [2], 30 nM; in test [3], 1400 nM; in test [7], 700 nM; in test [4], 1000 nM; in test [8] it was 4300 nM.

In turn, `O=c1[nH]cnc2c1c(-c1ccccc1)cn2-c1ccccc1` came in with an IC50 in test [2] of 10000 nM.

For `Nc1ncnc2c1c(-c1ccccc1)cn2-c1cccc(CO)c1`, the IC50 was 47000 nM in test [1]; 60 nM in test [2]; 600 nM in [3]; 12000 nM in test [9]; more than 5000 nM in test [7]; 200 nM in [4]. Also, the half-inhibitory concentration (IC50) in test [10] is 10000 nM; in [8], more than 5000 nM.

`COc1cccc(-c2cn(-c3ccccc3)c3ncnc(N)c23)c1`: the IC50 is 43000 nM in test [1]; 50 nM in test [2]; 3300 nM in test [7]; 60 nM in [4]; 2500 nM in test [10]; more than 1000 nM in test [5]. For the same compound, in test [8], the half-inhibitory concentration (IC50) is more than 5000 nM.

In turn, `Clc1ncnc2c1c(-c1ccccc1)cn2-c1ccccc1` had an IC50 in test [2] of 8000 nM.

Consider `COc1cccc(-c2cn(-c3ccc(CCN(C)CCO)cc3)c3ncnc(N)c23)c1`, for which the IC50 in [1] was more than 10000 nM; in test [2], 30 nM; in test [3] it was 300 nM; in test [9], 10000 nM; in test [7], 200 nM; in test [4] it was 300 nM. For the same compound, the IC50 was 300 nM in test [10], more than 1000 nM in [5] and more than 5000 nM in test [8].

As for `COc1cccc(-c2cn(-c3ccc(CC(=O)NCCO)cc3)c3ncnc(N)c23)c1`, the IC50 was more than 10000 nM in test [1]; 20 nM in test [2]; 800 nM in [3]; 3900 nM in test [7]; 220 nM in test [4]; more than 1000 nM in [5]. Further, the IC50 in [8] was more than 5000 nM.

In the case of `COc1cccc(-c2cn(-c3ccc(CNCCO)cc3)c3ncnc(N)c23)c1`, the IC50 in test [1] is more than 10000 nM; in test [2], 30 nM; in test [3] it was 300 nM; in [9], 6400 nM; in [7] it was 500 nM; in test [4], 230 nM. The results for the IC50 in [10], in test [5] and in test [8] were 600 nM, more than 1000 nM and more than 5000 nM, respectively.

For `COc1ccc(-c2cn(-c3ccccc3)c3ncnc(N)c23)cc1`, the IC50 in test [1] is more than 10000 nM; in test [2], 150 nM; in test [3], 350 nM; in [4], 400 nM; in [5] it was 200 nM.

Regarding `Cc1ccccc1-c1cn(-c2ccccc2)c2ncnc(N)c12`, the IC50 amounted to 90000 nM in [1], 6000 nM in [2] and 2650 nM in [3].

`Nc1ncnc2c1c(-c1ccccc1)cn2-c1cccc(CNCCO)c1`: the IC50 in [1] was more than 10000 nM; in test [2], 10 nM; in test [3], 3400 nM; in [7] it was 4000 nM; in test [5], 3600 nM; in test [8], 5000 nM.

The term IC50 denotes the concentration at which inhibition is half-maximal. Read a low IC50 as greater potency in that assay.
